# Experiments:
# [1] = molecular target: Serine-protein kinase ATM (Homo sapiens, UniProt Q13315); assay: Inhibition of ATM phosphorylation at Ser-1981 residue in human HT-29 cells incubated for 1 hr followed by X-ray irradiation by Hoechst staining based fluorescence plate reader analysis; format: cell-based
# [2] = molecular target: Serine/threonine-protein kinase ATR (Homo sapiens, UniProt Q13535); assay: Inhibition of ATR in human HT-29 cells assessed as reduction in Chk1 phosphorylation at Ser-345 residue after 60 mins in presence of 4-nitroquinoline-1-oxide by Hoechst 33258 staining based plate reader analysis; format: cell-based
# in vitro [3] = details: rat, hepatocytes
# in vitro [4] = details: human, hepatocytes
# [5] = molecular target: Voltage-gated inwardly rectifying potassium channel KCNH2 (Homo sapiens, UniProt Q12809)
# physchem = details: octanol/buffer, pH 7.4
# 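Wherever logD is given: determined by the shake flask method.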
# Sequence of Voltage-gated inwardly rectifying potassium channel KCNH2 (Q12809 whole entry): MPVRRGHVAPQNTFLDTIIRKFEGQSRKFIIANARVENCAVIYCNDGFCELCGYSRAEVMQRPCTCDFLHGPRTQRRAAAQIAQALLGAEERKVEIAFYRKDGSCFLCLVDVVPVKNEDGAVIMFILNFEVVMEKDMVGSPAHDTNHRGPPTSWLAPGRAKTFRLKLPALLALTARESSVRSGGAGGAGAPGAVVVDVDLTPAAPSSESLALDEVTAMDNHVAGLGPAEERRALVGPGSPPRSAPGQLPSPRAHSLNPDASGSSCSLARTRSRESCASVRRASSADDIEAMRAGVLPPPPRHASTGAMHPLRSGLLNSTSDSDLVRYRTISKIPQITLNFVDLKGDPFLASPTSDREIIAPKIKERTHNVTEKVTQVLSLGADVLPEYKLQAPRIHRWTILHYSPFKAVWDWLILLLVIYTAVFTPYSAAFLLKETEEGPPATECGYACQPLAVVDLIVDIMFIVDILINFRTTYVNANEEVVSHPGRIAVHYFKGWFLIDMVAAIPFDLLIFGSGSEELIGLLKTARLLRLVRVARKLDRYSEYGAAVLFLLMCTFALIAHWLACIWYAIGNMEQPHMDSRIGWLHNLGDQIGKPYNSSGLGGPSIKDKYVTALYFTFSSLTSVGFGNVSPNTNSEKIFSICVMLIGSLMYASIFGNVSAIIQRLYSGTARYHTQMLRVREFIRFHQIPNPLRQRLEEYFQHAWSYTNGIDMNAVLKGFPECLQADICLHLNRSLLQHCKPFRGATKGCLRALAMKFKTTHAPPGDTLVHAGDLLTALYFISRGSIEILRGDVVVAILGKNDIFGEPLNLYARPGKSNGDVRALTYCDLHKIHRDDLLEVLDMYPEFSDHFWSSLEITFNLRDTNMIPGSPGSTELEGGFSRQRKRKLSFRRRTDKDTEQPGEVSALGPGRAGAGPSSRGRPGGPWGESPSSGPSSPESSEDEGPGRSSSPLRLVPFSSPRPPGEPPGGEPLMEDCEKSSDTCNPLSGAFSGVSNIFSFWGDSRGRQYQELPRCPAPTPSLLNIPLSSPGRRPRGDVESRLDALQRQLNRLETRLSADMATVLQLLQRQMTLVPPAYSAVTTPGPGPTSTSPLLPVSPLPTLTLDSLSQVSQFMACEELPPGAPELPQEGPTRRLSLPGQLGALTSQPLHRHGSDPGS
# Sequence of Serine-protein kinase ATM (Q13315 whole entry): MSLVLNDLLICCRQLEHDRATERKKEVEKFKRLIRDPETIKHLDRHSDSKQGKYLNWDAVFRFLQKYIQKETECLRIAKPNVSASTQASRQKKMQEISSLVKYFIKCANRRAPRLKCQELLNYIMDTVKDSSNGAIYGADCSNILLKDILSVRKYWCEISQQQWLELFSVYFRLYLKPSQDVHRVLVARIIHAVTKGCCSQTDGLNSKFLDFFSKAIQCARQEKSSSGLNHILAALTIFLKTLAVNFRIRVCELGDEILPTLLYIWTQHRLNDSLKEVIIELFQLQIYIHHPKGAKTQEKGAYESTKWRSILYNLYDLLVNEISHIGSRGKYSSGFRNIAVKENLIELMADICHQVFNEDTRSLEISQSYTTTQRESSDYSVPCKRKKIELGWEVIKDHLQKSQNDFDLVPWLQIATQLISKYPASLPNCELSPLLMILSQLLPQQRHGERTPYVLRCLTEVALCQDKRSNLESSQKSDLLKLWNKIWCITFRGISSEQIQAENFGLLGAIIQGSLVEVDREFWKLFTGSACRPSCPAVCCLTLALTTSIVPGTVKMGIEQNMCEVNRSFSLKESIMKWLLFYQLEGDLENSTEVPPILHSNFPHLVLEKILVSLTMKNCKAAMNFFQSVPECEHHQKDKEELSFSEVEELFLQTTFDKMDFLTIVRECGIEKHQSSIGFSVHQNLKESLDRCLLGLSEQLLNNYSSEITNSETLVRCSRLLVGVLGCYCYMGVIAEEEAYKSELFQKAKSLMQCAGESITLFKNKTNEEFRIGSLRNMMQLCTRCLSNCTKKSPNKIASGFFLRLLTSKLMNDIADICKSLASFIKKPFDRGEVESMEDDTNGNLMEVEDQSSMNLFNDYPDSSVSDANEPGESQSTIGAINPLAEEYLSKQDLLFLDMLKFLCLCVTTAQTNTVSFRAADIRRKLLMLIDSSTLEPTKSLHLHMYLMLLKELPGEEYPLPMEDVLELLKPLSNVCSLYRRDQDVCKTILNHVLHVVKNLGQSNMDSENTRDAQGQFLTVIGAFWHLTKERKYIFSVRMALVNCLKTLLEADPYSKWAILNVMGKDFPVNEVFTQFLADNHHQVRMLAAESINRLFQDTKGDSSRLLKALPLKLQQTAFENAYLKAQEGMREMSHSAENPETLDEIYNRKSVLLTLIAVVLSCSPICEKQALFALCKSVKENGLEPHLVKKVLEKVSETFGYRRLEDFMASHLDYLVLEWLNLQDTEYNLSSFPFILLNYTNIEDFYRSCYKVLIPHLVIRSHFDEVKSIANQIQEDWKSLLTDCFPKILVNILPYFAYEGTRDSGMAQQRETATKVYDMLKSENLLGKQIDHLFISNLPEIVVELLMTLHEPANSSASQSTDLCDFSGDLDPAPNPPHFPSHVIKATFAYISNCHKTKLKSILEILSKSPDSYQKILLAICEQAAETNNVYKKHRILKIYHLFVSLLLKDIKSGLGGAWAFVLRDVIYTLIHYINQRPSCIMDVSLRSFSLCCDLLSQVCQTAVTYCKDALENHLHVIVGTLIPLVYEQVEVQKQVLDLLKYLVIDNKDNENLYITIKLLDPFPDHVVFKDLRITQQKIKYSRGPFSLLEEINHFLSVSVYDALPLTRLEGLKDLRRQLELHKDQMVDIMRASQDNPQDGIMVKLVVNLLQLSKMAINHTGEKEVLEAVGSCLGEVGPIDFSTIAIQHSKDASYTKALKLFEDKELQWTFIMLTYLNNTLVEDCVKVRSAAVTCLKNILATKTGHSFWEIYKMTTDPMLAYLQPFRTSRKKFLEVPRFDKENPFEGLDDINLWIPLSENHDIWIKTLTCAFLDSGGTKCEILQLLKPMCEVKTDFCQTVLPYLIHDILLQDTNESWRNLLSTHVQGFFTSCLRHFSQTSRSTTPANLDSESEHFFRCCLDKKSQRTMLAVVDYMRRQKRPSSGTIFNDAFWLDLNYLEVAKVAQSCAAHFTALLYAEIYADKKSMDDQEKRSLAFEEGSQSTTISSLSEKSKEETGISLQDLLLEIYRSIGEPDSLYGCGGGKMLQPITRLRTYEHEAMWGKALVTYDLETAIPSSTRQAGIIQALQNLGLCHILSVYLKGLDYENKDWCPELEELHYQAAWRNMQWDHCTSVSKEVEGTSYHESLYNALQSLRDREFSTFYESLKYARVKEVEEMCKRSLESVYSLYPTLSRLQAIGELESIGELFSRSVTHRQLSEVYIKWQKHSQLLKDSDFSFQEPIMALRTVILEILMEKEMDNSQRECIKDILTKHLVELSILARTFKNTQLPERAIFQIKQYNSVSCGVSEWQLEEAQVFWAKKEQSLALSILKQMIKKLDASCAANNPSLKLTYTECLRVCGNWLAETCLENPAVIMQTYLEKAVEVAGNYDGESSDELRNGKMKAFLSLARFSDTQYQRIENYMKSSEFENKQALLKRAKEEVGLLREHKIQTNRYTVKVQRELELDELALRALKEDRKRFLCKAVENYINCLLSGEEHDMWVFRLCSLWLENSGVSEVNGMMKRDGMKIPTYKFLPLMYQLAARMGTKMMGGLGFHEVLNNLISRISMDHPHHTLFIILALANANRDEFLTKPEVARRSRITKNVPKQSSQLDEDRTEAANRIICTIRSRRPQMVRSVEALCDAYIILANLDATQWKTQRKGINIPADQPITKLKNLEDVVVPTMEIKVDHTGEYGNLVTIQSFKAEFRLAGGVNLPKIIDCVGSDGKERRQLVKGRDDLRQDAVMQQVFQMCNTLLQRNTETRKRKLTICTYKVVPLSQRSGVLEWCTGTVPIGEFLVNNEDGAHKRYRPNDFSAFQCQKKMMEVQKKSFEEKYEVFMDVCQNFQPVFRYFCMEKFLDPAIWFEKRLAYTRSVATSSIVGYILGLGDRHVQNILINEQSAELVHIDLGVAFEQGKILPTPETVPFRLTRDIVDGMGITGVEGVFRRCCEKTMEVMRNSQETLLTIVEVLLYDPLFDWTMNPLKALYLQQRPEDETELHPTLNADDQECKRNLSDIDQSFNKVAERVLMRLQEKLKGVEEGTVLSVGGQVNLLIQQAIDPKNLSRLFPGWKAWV
SMILES,IC50 [1] [nM],IC50 [2] [nM],hepatocyte CLint at 1.5 h (in vitro [3]) [µL/min/1e6 cells],hepatocyte CLint at 1.5 h (in vitro [4]) [µL/min/1e6 cells],IC50 [5] [nM],logD (physchem)
C[C@@H](Nc1c(C(=O)O)cnc2ccc(-c3cccnc3)cc12)c1ccc(Cl)cc1,> 30000,> 30000,,,,
CNC(=O)c1cnc2ccc(-c3cccnc3)cc2c1N[C@H](C)c1ccc(Cl)cc1,> 30000,> 30000,,,,
CCC(CC)CNc1c(C(N)=O)cnc2ccc(-c3cccnn3)cc12,571,> 15000,,,,
C[C@@H](Nc1c(C(N)=O)cnc2ccc(-c3cccnc3)cc12)C1CCOCC1,730,3500,46,14,4300,2.3
CCC(CC)CNc1c(C(N)=O)cnc2ccc(-c3ccc(C)nc3)cc12,50,5500,150,7.3,,> 4.3
NC(=O)c1cnc2ccc(-c3cccnc3)cc2c1SC1CCCC1,9700,> 23000,120,18,5100,3.2
NC(=O)c1cnc2ccc(-c3cccnc3)c(F)c2c1NC1CCOCC1,> 30000,> 30000,11,< 3,13000,1.5
CCC(CC)CNc1c(C(N)=O)c(C)nc2ccc(-c3cccnc3)cc12,> 30000,> 30000,43,6,680,2.7
C[C@H](Nc1c(C(N)=O)cnc2ccc(-c3cccnc3)cc12)c1ccn(C)n1,124,640,31,10,11000,2.5
C[C@H](Nc1c(C(N)=O)cnc2ccc(-c3cccnc3)cc12)C1CCOCC1,168,> 14000,38,14,3600,2.5
NC(=O)c1cnc2ccc(-c3cccnc3)cc2c1NCC1CCCCC1,456,3000,130,40,830,> 4.3
CCC(CC)CNc1c(C(N)=O)cnc2ccc(-c3cncnc3)cc12,1840,> 18000,140,46,,3.3
COCc1ccc(-c2cc3c(N[C@@H](C)c4nn(C)cc4F)c(C(N)=O)cnc3cc2F)cn1,19,> 30000,4.8,5.5,,3
CCC(CC)CNc1c(C(N)=O)cnc2ccc(-c3ccc(CS(C)(=O)=O)nc3)cc12,39,> 30000,200,15,1900,3.1
C[C@@H](Nc1c(C(N)=O)cnc2ccc(-c3cccnc3)cc12)c1ccn(C)n1,1130,> 18000,120,3.4,2800,2.3
NC(=O)c1cnc2cc(F)c(-c3cccnc3)cc2c1NC1CCOCC1,606,> 30000,13,5.5,,2.1
CCC(CC)CNc1c(C(N)=O)cnc2ccc(-c3ccc(CS(C)(=O)=O)cc3)cc12,70,> 30000,210,23,2100,3.5
NC(=O)c1cnc2cc(Cl)c(-c3cccnc3)cc2c1NC1CCOCC1,3250,> 30000,15,4.3,1200,2.7

SMILES,IC50 [1] [nM],IC50 [2] [nM],hepatocyte CLint at 1.5 h (in vitro [3]) [µL/min/1e6 cells],hepatocyte CLint at 1.5 h (in vitro [4]) [µL/min/1e6 cells],IC50 [5] [nM],logD (physchem)
NC(=O)c1cnc2ccc(-c3cccnc3)cc2c1NC1CCCCC1,132,3200,70,34,,3.8
NC(=O)c1cnc2c(Cl)cc(-c3cccnc3)cc2c1NC1CCOCC1,> 30000,> 30000,7.3,< 1,,2.1
NC(=O)c1cnc2ccc(-c3cccnc3)cc2c1NC1CCOCC1,954,3100,8.5,< 4.2,,1.9
CCC(CC)CNc1c(C(N)=O)cnc2ccc(-c3ccc(CO)nc3)cc12,87,> 13000,> 300,150,3100,3.7
CCC(CC)CNc1c(C(N)=O)cnc2c(C)cc(-c3cccnc3)cc12,6000,> 30000,,,,
COCc1ccc(-c2ccc3ncc(C(N)=O)c(N[C@@H](C)c4ccn(C)n4)c3c2)c(F)n1,63,> 25000,6.4,5.7,,2.6
CCC(CC)CNc1c(C(N)=O)cnc2ccc(-c3ccc(COC)cc3)cc12,373,> 30000,76,21,18000,4.1
NC(=O)c1cnc2c(F)cc(-c3cccnc3)cc2c1NC1CCOCC1,> 30000,> 30000,,,,
NC(=O)c1cnc2ccc(-c3cccnc3)cc2c1NC1CCCC1,137,1200,65,23,570,3.6
COCc1ccc(-c2cc3c(N[C@@H](C)c4ccn(C)n4)c(C(N)=O)cnc3cc2F)c(F)n1,,> 30000,,,,
CCC(CC)CNc1c(C(N)=O)cnc2ccc(-c3cccnc3)cc12,73,> 11000,140,43,,4
NC(=O)c1cnc2ccc(-c3cccnc3)cc2c1NCC1CCOCC1,3230,11000,19,12,,2.1
C[C@@H](Nc1ccnc2ccc(-c3cccnc3)cc12)c1ccc(Cl)cc1,> 30000,> 30000,,,,
CCC(CC)CNc1c(C(N)=O)cnc2ccc(-c3cnn(C)c3)cc12,525,7100,,,,
CCC(CC)CNc1c(C(N)=O)cnc2ccc(-c3ccnnc3)cc12,908,2600,95,18,,3.1
COCc1ccc(-c2cc3c(N[C@@H](C)C4CCOCC4)c(C(N)=O)cnc3cc2F)cn1,52,> 30000,,,,
CCC(CC)CNc1c(C(N)=O)cnc2ccc(-c3ccncc3)cc12,418,730,76,37,,3.3

# — ChEMBL document CHEMBL4477207, “Discovery of Novel 3-Quinoline Carboxamides as Potent, Selective, and Orally Bioavailable Inhibitors of Ataxia Telangiectasia Mutated (ATM) Kinase” (J Med Chem, 2016)
